The values below are quoted from earlier work in patent US20160158274A1, “COMPOSITION FOR MUCOUS DISPERSION OR HYDRATION, CONTAINING POLY-r-[sequence] ACID” (BIOLEADERS CORPORATION, priority 2013, published 2016).

For this data set, the system named is mucin. To be noted: mucin in cystic fibrosis.

`O=C(O)CN(CCN(CC(=O)O)CC(=O)O)CC(=O)O` [EDTA]: the “dispersion of aggregated mucin” value is “assist in dispersion of mucin”.
